In ChEMBL document CHEMBL1152119, “4-(3-furyl)-2-(4-methylpiperazino)pyrimidines: Potent 5-HT2A receptor antagonists” (Bioorg Med Chem Lett, 1997):
The source made the active and inactive calls. The rule behind the calls is not given here.

Legend:
Rattus norvegicus [1] = assay: Percent activity for blocking of discriminative property stimulated by (+/-) DOI in rats at 10 mg/kg(+/-DOI 0.35 mg/kg administered to animals pretreated with compound); assay type: functional
[2] = biological target: T1, 5-hydroxytryptamine receptor 1A (Rattus norvegicus, UniProt P19327); assay: Displacement of [3H]8-OH-DPAT binding to 5-hydroxytryptamine 1A receptor of rat brain hippocampus; assay type: tissue-based
T1 sequence (P19327 whole entry): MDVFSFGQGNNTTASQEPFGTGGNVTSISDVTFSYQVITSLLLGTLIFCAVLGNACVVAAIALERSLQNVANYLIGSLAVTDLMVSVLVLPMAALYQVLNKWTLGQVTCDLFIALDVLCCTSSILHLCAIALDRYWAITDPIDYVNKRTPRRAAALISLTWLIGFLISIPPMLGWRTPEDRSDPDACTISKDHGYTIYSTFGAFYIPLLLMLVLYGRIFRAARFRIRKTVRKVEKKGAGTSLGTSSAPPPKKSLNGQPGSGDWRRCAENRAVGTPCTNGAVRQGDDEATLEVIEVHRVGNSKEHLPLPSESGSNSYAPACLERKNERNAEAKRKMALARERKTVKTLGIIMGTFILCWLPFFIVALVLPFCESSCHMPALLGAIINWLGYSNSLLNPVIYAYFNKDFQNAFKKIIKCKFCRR

Rattus norvegicus [3] = assay: Blocking of discriminative property stimulated by DOI in rats at 10 mg/kg dose, activity expressed as response/min(+/-DOI 0.35 mg/kg administered to animals pretreated with compound); assay type: functional
Mus musculus = assay: Inhibitory dose against (+/-)DOI induced (2.5 mg/kg, ip) head twitch response in mice; assay type: functional; settings: read-out: ID50 (the source's name)
[4] = biological target: 5-hydroxytryptamine receptor 2A (Rattus norvegicus, UniProt P14842); assay: Displacement of [3H]ketanserin from 5-hydroxytryptamine 2A receptor of rat brain cortex
Rattus norvegicus [5] = assay: Number of responding rats/number of rats to receive the compound at a dose of 10 mg/kg, +/-DOI 0.35 mg/kg was administered intraperitoneally 60 min before test; 8/8; assay type: functional, organism-based
Rattus norvegicus [6] = assay: Number of responding rats/number of rats to receive the compound at a dose of 10 mg/kg, +/-DOI 0.35 mg/kg was administered intraperitoneally 60 min before test; 7/7; assay type: functional, organism-based
Rattus norvegicus [7] = assay: Percent activity for blocking of discriminative property stimulated by (+/-) DOI in rats at 20 mg/kg(+/-DOI 0.35 mg/kg administered to animals pretreated with compound); assay type: functional
Rattus norvegicus [8] = assay: Blocking of discriminative property stimulated by DOI in rats at 20 mg/kg dose, activity expressed as response/min(+/-DOI 0.35 mg/kg administered to animals pretreated with compound); assay type: functional
Rattus norvegicus [9] = assay: Number of responding rats/number of rats to receive the compound at a dose of 20 mg/kg, +/-DOI 0.35 mg/kg was administered intraperitoneally 60 min before test; 6/6; assay type: functional, organism-based
Rattus norvegicus [10] = assay: Blocking of discriminative property stimulated by DOI in rats at 0.35 mg/kg dose, activity expressed as response/min(+/-DOI 0.35 mg/kg administered to animals pretreated with compound); assay type: functional
Rattus norvegicus [11] = assay: Percent activity for blocking of discriminative property stimulated by (+/-) DOI in rats at 0.35 mg/kg(+/-DOI 0.35 mg/kg administered to animals pretreated with compound); assay type: functional
Rattus norvegicus [12] = assay: Blocking of discriminative property stimulated by DOI in rats at 0.15 mg/kg dose, activity expressed as response/min(+/-DOI 0.35 mg/kg administered to animals pretreated with compound); assay type: functional
Rattus norvegicus [13] = assay: Percent activity for blocking of discriminative property stimulated by (+/-) DOI in rats at 0.25 mg/kg(+/-DOI 0.35 mg/kg administered to animals pretreated with compound); assay type: functional
Rattus norvegicus [14] = assay: Percent activity for blocking of discriminative property stimulated by (+/-) DOI in rats at 0.15 mg/kg(+/-DOI 0.35 mg/kg administered to animals pretreated with compound); assay type: functional
Rattus norvegicus [15] = assay: Blocking of discriminative property stimulated by DOI in rats at 0.25 mg/kg dose, activity expressed as response/min(+/-DOI 0.35 mg/kg administered to animals pretreated with compound); assay type: functional
Rattus norvegicus [16] = assay: Blocking of discriminative property stimulated by DOI in rats at 5 mg/kg dose, activity expressed as response/min(+/-DOI 0.35 mg/kg administered to animals pretreated with compound); assay type: functional
Rattus norvegicus [17] = assay: Number of responding rats/number of rats to receive the compound at a dose of 5 mg/kg, +/-DOI 0.35 mg/kg was administered intraperitoneally 60 min before test; 9/9; assay type: functional, organism-based
Rattus norvegicus [18] = assay: Number of responding rats/number of rats to receive the compound at a dose of 10mg/kg, +/-DOI 0.35 mg/kg was administered intraperitoneally 60 min before test; 6/6; assay type: functional, organism-based; design: dose 0.35 mg/kg
Rattus norvegicus [19] = assay: Percent activity for blocking of discriminative property stimulated by (+/-) DOI in rats at 5 mg/kg(+/-DOI 0.35 mg/kg administered to animals pretreated with compound); assay type: functional
Rattus norvegicus [20] = assay: Blocking of discriminative property stimulated by DOI in rats at 1 mg/kg dose, activity expressed as response/min(+/-DOI 0.35 mg/kg administered to animals pretreated with compound); assay type: functional
Rattus norvegicus [21] = assay: Number of responding rats/number of rats to receive the compound at a dose of 1 mg/kg, +/-DOI 0.35 mg/kg was administered intraperitoneally 60 min before test; 9/9; assay type: functional, organism-based
Rattus norvegicus [22] = assay: Percent activity for blocking of discriminative property stimulated by (+/-) DOI in rats at 1 mg/kg(+/-DOI 0.35 mg/kg administered to animals pretreated with compound); assay type: functional
Rattus norvegicus [23] = assay: Blocking of discriminative property stimulated by DOI in rats at 15 mg/kg dose, activity expressed as response/min(+/-DOI 0.35 mg/kg administered to animals pretreated with compound); assay type: functional
Rattus norvegicus [24] = assay: Number of responding rats/number of rats to receive the compound at a dose of 15mg/kg, +/-DOI 0.35 mg/kg was administered intraperitoneally 60 min before test; 7/7; assay type: functional, organism-based; design: dose 0.35 mg/kg
Rattus norvegicus [25] = assay: Percent activity for blocking of discriminative property stimulated by (+/-) DOI in rats at 15 mg/kg(+/-DOI 0.35 mg/kg administered to animals pretreated with compound); assay type: functional

Sequence of 5-hydroxytryptamine receptor 2A (P14842 whole entry): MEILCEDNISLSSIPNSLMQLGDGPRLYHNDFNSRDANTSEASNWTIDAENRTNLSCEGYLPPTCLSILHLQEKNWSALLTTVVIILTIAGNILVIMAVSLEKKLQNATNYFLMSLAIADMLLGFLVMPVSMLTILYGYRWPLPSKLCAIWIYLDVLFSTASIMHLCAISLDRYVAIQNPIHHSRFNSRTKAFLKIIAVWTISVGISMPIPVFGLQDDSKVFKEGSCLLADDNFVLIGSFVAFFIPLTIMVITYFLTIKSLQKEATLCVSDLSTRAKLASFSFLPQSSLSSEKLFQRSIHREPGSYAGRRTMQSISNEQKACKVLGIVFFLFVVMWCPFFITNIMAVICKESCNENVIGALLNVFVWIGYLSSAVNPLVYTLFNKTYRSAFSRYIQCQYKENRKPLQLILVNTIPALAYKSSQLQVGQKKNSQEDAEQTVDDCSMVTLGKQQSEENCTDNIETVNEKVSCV

`CN1CCN(c2nc(-c3ccoc3)cc(-c3ccco3)n2)CC1` showed an Activity (Rattus norvegicus [1]) of 4%, a Ki [2] of 415 nM and a Response (Rattus norvegicus [3]) of 85.1 min⁻¹. For the same compound, the ED50 (Mus musculus) was 2.7 mg/kg, the Ki [4] was 13 nM and the No. of animals (Rattus norvegicus [5]) was “Active”.
For `CN1CCN(c2nc(-c3ccccc3)cc(-c3ccoc3)n2)CC1`, the Activity (Rattus norvegicus [1]) was 7.2%, the Ki [2] was 1340 nM and the Response (Rattus norvegicus [3]) was 86.6 min⁻¹. For the same compound, the No. of animals (Rattus norvegicus [6]) was “Active”, the ED50 (Mus musculus) was 3.9 mg/kg and the Ki [4] was 9 nM.
Compound `Cc1cc(-c2ccoc2)nc(N2CCN(C)CC2)n1` has a Ki [2] of 265 nM and a Ki [4] of 50 nM.
In the case of `CN1CCN(c2nccc(-c3ccoc3)n2)CC1`, the Ki [2] is reported as 700 nM, the Activity (Rattus norvegicus [7]) is reported as 6.6% and the Response (Rattus norvegicus [8]) is reported as 84.7 min⁻¹. The ED50 (Mus musculus) was 9.7 mg/kg, the No. of animals (Rattus norvegicus [9]) was “Active” and the Ki [4] was 10 nM.
Compound `COc1cc(CC(C)N)c(OC)cc1I` (racemic) has a Response (Rattus norvegicus [10]) of 74.7 min⁻¹, an Activity (Rattus norvegicus [11]) of 100% and a Response (Rattus norvegicus [12]) of 81.3 min⁻¹. The Activity (Rattus norvegicus [13]) was 63.1%, the Activity (Rattus norvegicus [14]) was 37.5% and the Response (Rattus norvegicus [15]) was 79.5 min⁻¹.
`CN1CCN(c2nc(-c3ccoc3)cc(-c3ccoc3)n2)CC1` showed an Activity (Rattus norvegicus [1]) of 2.8%, a Ki [2] of 621 nM and a Response (Rattus norvegicus [16]) of 84.3 min⁻¹. For the same compound, the Response (Rattus norvegicus [3]) was 72.5 min⁻¹, the No. of animals (Rattus norvegicus [17]) was “Active” and the No. of animals (Rattus norvegicus [18]) was “Active”. For the same compound, the ED50 (Mus musculus) was 2.4 mg/kg, the Activity (Rattus norvegicus [19]) was 31.1% and the Ki [4] was 8 nM.
`CN1CCN(c2nccc(-c3ccco3)n2)CC1` was tested, and the Ki [2] was 810 nM and the Ki [4] was 745 nM.
`CN1CCN(c2nc(-c3cccs3)cc(-c3cccs3)n2)CC1` gave a Ki [2] of 972 nM and a Ki [4] of 8 nM.
`CN1CCC(=C2c3ccccc3C=Cc3ccccc32)CC1` [CYPROHEPTADINE] was tested, and the Response (Rattus norvegicus [20]) was 85.8 min⁻¹, the No. of animals (Rattus norvegicus [21]) was “Active” and the ED50 (Mus musculus) was 0.4 mg/kg. It also gave an Activity (Rattus norvegicus [22]) of 7.1%.
With `CN1CCN(c2nc(-c3ccoc3)cc(-c3cccs3)n2)CC1` the Activity (Rattus norvegicus [1]) was 47.3%, the Ki [2] was 2240 nM and the Response (Rattus norvegicus [3]) was 60.3 min⁻¹. The Response (Rattus norvegicus [23]) was 66.2 min⁻¹, the No. of animals (Rattus norvegicus [24]) was “Active” and the ED50 (Mus musculus) was 4.2 mg/kg. For the same compound, the Ki [4] was 10 nM, the Activity (Rattus norvegicus [25]) was 11.2% and the No. of animals (Rattus norvegicus [5]) was “Active”.
Compound `CN1CCN(c2nccc(-c3ccccc3)n2)CC1` has a Ki [2] of 613 nM and a Ki [4] of 2100 nM.
For `CN1CCN(c2nccc(-c3cccs3)n2)CC1`, the Ki [2] was 484 nM and the Ki [4] was 208 nM.
